Experimental data from patent US8802597B2, “Herbicidal pyrimidines” (E I du Pont de Nemours and Company, priority 2003, dated 2014).

Experiments:
Assay type in all cases: in vivo
soybean (Glycine max) = test: Test C pre/postemergence; conditions: for Plant response rating, Soybean: Preemergence, scale 0 to 100, 0 no effect, 100 complete control
How it was run: (§1)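 Test compounds, formulated in a non-phytotoxic solvent mix with surfactant, were applied to freshly planted seeds and, at the same time, to emerged plants at 1- to 4-leaf stage (2 to 18 cm). After 12 to 14 days in the greenhouse, response was scored visually versus controls, 0 = no effect, 100 = complete control.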

[1] = system: common (oilseed) sunflower (Helianthus annuus); test: Test C pre/postemergence; conditions: Preemergence, scale 0 to 100, 0 no effect, 100 complete control
How it was run: as §1

[2] = system: Surinam grass (Brachiaria decumbens); test: Test C pre/postemergence; conditions: for Plant response rating (scale of 0 to 100), Surinam Grass: Postemergence; for Plant response rating, Surinam Grass: Preemergence, scale 0 to 100, 0 no effect, 100 complete control
How it was run: as §1

[3] = system: common ragweed (Ambrosia elatior); test: Test C pre/postemergence; conditions: for Plant response rating, Ragweed: Preemergence, scale 0 to 100, 0 no effect, 100 complete control
How it was run: as §1

[4] = system: yellow nutsedge (Cyperus esculentus); test: Test C pre/postemergence; conditions: for Plant response rating, Nutsedge, Yellow: Preemergence, scale 0 to 100, 0 no effect, 100 complete control
How it was run: as §1

kochia (Kochia scoparia) = test: Test C pre/postemergence; conditions: for Plant response rating, Kochia: Preemergence
How it was run: as §1

[5] = system: johnsongrass (Sorghum halepense); test: Test C pre/postemergence; conditions: for Plant response rating, Johnsongrass: Preemergence
How it was run: as §1

[6] = system: woolly cupgrass (Eriochloa villosa); test: Test C pre/postemergence; conditions: for Plant response rating, Cupgrass, Woolly: Preemergence
How it was run: as §1

[7] = system: giant foxtail (Setaria faberii); test: Test C pre/postemergence; conditions: for Plant response rating, Foxtail, Giant: Preemergence
How it was run: as §1

[8] = system: pigweed (Amaranthus retroflexus); test: Test C pre/postemergence; conditions: for Plant response rating, Pigweed: Preemergence, scale 0 to 100, 0 no effect, 100 complete control
How it was run: as §1

[9] = system: morningglory (Ipomoea coccinea); test: Test C pre/postemergence; conditions: for Plant response rating, Morningglory: Preemergence
How it was run: as §1

[10] = system: chickweed (Stellaria media); test: Test C postemergence
How it was run: as §1

[11] = Postemergence, 125 g ai/ha, scale 0 to 100 (0 no effect, 100 complete control)
[12] = 16 g ai/ha, scale 0 to 100, 0 no effect, 100 complete control
[13] = 31 g ai/ha, scale 0 to 100, 0 no effect, 100 complete control
[14] = 62 g ai/ha, scale 0 to 100, 0 no effect, 100 complete control

CCCCOC(=O)c1nc(C2CC2)nc(N)c1Cl [Compound 76]
Plant response rating (scale of 0 to 100), Soybean (soybean (Glycine max); Postemergence, 16 g ai/ha): 95
Plant response rating (scale of 0 to 100), Soybean (soybean (Glycine max); Postemergence, 31 g ai/ha): 95
Plant response rating (scale of 0 to 100), Soybean (soybean (Glycine max); Postemergence, 62 g ai/ha): 95
Soybean plant response rating (soybean (Glycine max); [11]): 100
Plant response rating, Soybean (soybean (Glycine max); 16 g ai/ha): 50
Plant response rating, Soybean (soybean (Glycine max); 31 g ai/ha): 70
Plant response rating, Soybean (soybean (Glycine max); 62 g ai/ha): 95
Plant response rating, Sunflower ([1]; 16 g ai/ha): 50
Plant response rating, Sunflower ([1]; 31 g ai/ha): 85
Plant response rating, Sunflower ([1]; 62 g ai/ha): 100
Plant response rating (scale of 0 to 100), Surinam Grass ([2]; 16 g ai/ha): 60
Plant response rating (scale of 0 to 100), Surinam Grass ([2]; 31 g ai/ha): 70
Plant response rating (scale of 0 to 100), Surinam Grass ([2]; 62 g ai/ha): 95
Plant response rating, Surinam Grass ([2]; 16 g ai/ha): 0
Plant response rating, Surinam Grass ([2]; 31 g ai/ha): 0
Plant response rating, Surinam Grass ([2]; 62 g ai/ha): 0
Plant response rating (scale of 0 to 100), Ragweed ([3]; Postemergence, 16 g ai/ha): 80
Plant response rating (scale of 0 to 100), Ragweed ([3]; Postemergence, 31 g ai/ha): 90
Plant response rating (scale of 0 to 100), Ragweed ([3]; Postemergence, 62 g ai/ha): 95
Ragweed plant response rating [3, 11]: 100
Plant response rating, Ragweed ([3]; 16 g ai/ha): 50
Plant response rating, Ragweed ([3]; 31 g ai/ha): 60
Plant response rating, Ragweed ([3]; 62 g ai/ha): 80
Plant response rating, Ragweed [3]: 100
Plant response rating (scale of 0 to 100), Nutsedge, Yellow ([4]; Postemergence, 16 g ai/ha): 10
Plant response rating (scale of 0 to 100), Nutsedge, Yellow ([4]; Postemergence, 31 g ai/ha): 30
Plant response rating (scale of 0 to 100), Nutsedge, Yellow ([4]; Postemergence, 62 g ai/ha): 40
Nutsedge, Yellow plant response rating [4, 11]: 60
Plant response rating, Nutsedge, Yellow ([4]; 16 g ai/ha): 0
Plant response rating, Nutsedge, Yellow ([4]; 31 g ai/ha): 0
Plant response rating, Nutsedge, Yellow ([4]; 62 g ai/ha): 0
Plant response rating (scale of 0 to 100), Kochia (kochia (Kochia scoparia); Postemergence, 16 g ai/ha): 90
Plant response rating (scale of 0 to 100), Kochia (kochia (Kochia scoparia); Postemergence, 31 g ai/ha): 95
Plant response rating (scale of 0 to 100), Kochia (kochia (Kochia scoparia); Postemergence, 62 g ai/ha): 95
Kochia plant response rating (kochia (Kochia scoparia); [11]): 100
Plant response rating, Kochia (kochia (Kochia scoparia); [12]): 70
Plant response rating, Kochia (kochia (Kochia scoparia); [13]): 90
Plant response rating, Kochia (kochia (Kochia scoparia); [14]): 95
Plant response rating, Kochia (kochia (Kochia scoparia); 125 g ai/ha, scale 0 to 100): 100
Plant response rating (scale of 0 to 100), Johnsongrass ([5]; Postemergence, 16 g ai/ha): 25
Plant response rating (scale of 0 to 100), Johnsongrass ([5]; Postemergence, 31 g ai/ha): 65
Johnsongrass plant response rating [5, 11]: 95
Plant response rating, Johnsongrass [5, 12]: 0
Plant response rating, Johnsongrass [5, 13]: 0
Plant response rating, Johnsongrass [5, 14]: 20
Plant response rating, Johnsongrass ([5]; 125 g ai/ha, scale 0 to 100): 50
Plant response rating (scale of 0 to 100), Cupgrass, Woolly ([6]; Postemergence, 16 g ai/ha): 55
Plant response rating (scale of 0 to 100), Cupgrass, Woolly ([6]; Postemergence, 31 g ai/ha): 60
Plant response rating (scale of 0 to 100), Cupgrass, Woolly ([6]; Postemergence, 62 g ai/ha): 80
Cupgrass, Woolly plant response rating [6, 11]: 95
Plant response rating, Cupgrass, Woolly [6, 12]: 0
Plant response rating, Cupgrass, Woolly [6, 13]: 0
Plant response rating, Cupgrass, Woolly [6, 14]: 20
Plant response rating, Cupgrass, Woolly ([6]; 125 g ai/ha, scale 0 to 100): 50
Plant response rating (scale of 0 to 100), Foxtail, Giant ([7]; Postemergence, 16 g ai/ha): 15
Plant response rating (scale of 0 to 100), Foxtail, Giant ([7]; Postemergence, 31 g ai/ha): 25
Plant response rating (scale of 0 to 100), Foxtail, Giant ([7]; Postemergence, 62 g ai/ha): 55
Foxtail, Giant plant response rating [7, 11]: 85
Plant response rating, Foxtail, Giant [7, 12]: 0
Plant response rating, Foxtail, Giant [7, 13]: 0
Plant response rating, Foxtail, Giant [7, 14]: 0
Plant response rating, Foxtail, Giant ([7]; 125 g ai/ha, scale 0 to 100): 10
Plant response rating (scale of 0 to 100), Pigweed ([8]; Postemergence, 16 g ai/ha): 85
Plant response rating (scale of 0 to 100), Pigweed ([8]; Postemergence, 31 g ai/ha): 95
Plant response rating (scale of 0 to 100), Pigweed ([8]; Postemergence, 62 g ai/ha): 100
Pigweed plant response rating [8, 11]: 100
Plant response rating, Pigweed ([8]; 16 g ai/ha): 60
Plant response rating, Pigweed ([8]; 31 g ai/ha): 80
Plant response rating, Pigweed ([8]; 62 g ai/ha): 80
Plant response rating (scale of 0 to 100), Morningglory ([9]; Postemergence, 16 g ai/ha): 95
Plant response rating (scale of 0 to 100), Morningglory ([9]; Postemergence, 31 g ai/ha): 95
Plant response rating (scale of 0 to 100), Morningglory ([9]; Postemergence, 62 g ai/ha): 95
Morningglory plant response rating [9, 11]: 100
Plant response rating, Morningglory [9, 12]: 40
Plant response rating, Morningglory [9, 13]: 60
Plant response rating, Morningglory [9, 14]: 100
Plant response rating, Morningglory ([9]; 125 g ai/ha, scale 0 to 100): 100
Plant response rating (scale of 0 to 100), Chickweed ([10]; 16 g ai/ha): 35
Plant response rating (scale of 0 to 100), Chickweed ([10]; 31 g ai/ha): 45
Plant response rating (scale of 0 to 100), Chickweed ([10]; 62 g ai/ha): 70
Chickweed plant response rating ([10]; 125 g ai/ha, scale 0 to 100 (0 no effect, 100 complete control)): 95
